# Reference: patent publication US4342751A (priority 1981, dated 1982)
# Numbered stars: 1 amine (or outer) side, 2 acyl side, 3 side chain; on linkers, the order of the positions; unused ones are H or OH. Square brackets hold non-standard residues; d marks the D form. Peptide text beside a SMILES is read from it. X1 = CCC(N[*:1])C(C)C(=O)O[C@H](C(=O)[*:2])[C@@H](C)CC; X2 = C[C@H](N[*:1])C(=O)C(C)(C)C(=O)[*:2]; NMeY = CN[C@@H](Cc1ccc(O)cc1)C(=O)O; NMeI = CC[C@H](C)[C@H](NC)C(=O)O; NMeV = CN[C@H](C(=O)O)C(C)C
# Legend:
# [1] = system: Plasmopora viticola
# [2] = system: Grape leaves (C. V. Niagara); settings: in vivo
smiles,measurement,setting,value
"CCC1NC(=O)[C@H](C)NC(=O)C(C)(C)C(=O)[C@H](C)NC(=O)[C@H](Cc2ccc(OC)cc2)N(C)C(=O)[C@H](C(C)C)N(C)C(=O)CNC(=O)[C@H]([C@@H](C)CC)N(C)C(=O)CNC(=O)[C@H]([C@@H](C)CC)OC(=O)C1C (stereo partly drawn) [Majusculamide C, majusculamide C] (cyclo(A[X1]G[NMeI]G[NMeV][NMeY](Me)[X2]))",In vivo effectiveness against grape downy mildew,[1],effective
same,Control of fungus,[1]; in vivo,control
same,"Phytotoxicity rating, grape leaves",[2],0
